In PubChem BioAssay AID192 (DTP/NCI, 2004) one finds T/C data, which are given here for 23 compounds.

The test system of the test is BDF1 mice, B16 melanoma ip, median survival T/C. Kind of test: NCI In Vivo Anticancer Drug Screen. Data for tumor model B16 Melanoma (intraperitoneal) in B6D2F1 (BDF1) mice. Particulars: endpoint: median survival time, higher = longer survival. In outline:
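Vehicle-treated animals serve as the reference (C); treated animals (T) are scored for survival or tumor size after tumor transplantation.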

Setting [1] is: dose: 50.0 mg/kg/injection, schedule: Q01DX009 (ip), vehicle: Klucel (hydroxypropylcellulose) (HPC).
Setting [2] is: dose: 100.0 mg/kg/injection, schedule: Q01DX009 (ip), vehicle: Klucel (hydroxypropylcellulose) (HPC).
Setting [3] is: dose: 200.0 mg/kg/injection, schedule: Q01DX009 (ip), vehicle: Klucel (hydroxypropylcellulose) (HPC).
[4] abbreviates: dose: 25.0 mg/kg/injection, schedule: Q01DX009 (ip), vehicle: Klucel (hydroxypropylcellulose) (HPC).
The mark [5] stands for this setting: dose: 12.5 mg/kg/injection, schedule: Q04DX003 (ip), vehicle: saline with Tween-80.
The mark [6] stands for this setting: dose: 25.0 mg/kg/injection, schedule: Q04DX003 (ip), vehicle: saline with Tween-80.
Where [7] appears, read: dose: 25.0 mg/kg/injection, schedule: Q01DX009 (ip), vehicle: saline.
Setting [8] is: dose: 100.0 mg/kg/injection, schedule: Q01DX009 (ip), vehicle: saline.
[9] abbreviates: dose: 50.0 mg/kg/injection, schedule: Q01DX009 (ip), vehicle: saline with Tween-80.
The mark [10] stands for this setting: dose: 100.0 mg/kg/injection, schedule: Q01DX009 (ip), vehicle: saline with Tween-80.
The mark [11] stands for this setting: dose: 400.0 mg/kg/injection, schedule: Q01DX009 (ip), vehicle: Klucel (hydroxypropylcellulose) (HPC).
Setting [12] is: dose: 12.5 mg/kg/injection, schedule: Q01DX009 (ip), vehicle: saline with Tween-80.
[13] abbreviates: dose: 25.0 mg/kg/injection, schedule: Q01DX009 (ip), vehicle: saline with Tween-80.
Where [14] appears, read: dose: 6.25 mg/kg/injection, schedule: Q01DX009 (ip), vehicle: saline with Tween-80.

Several values for one entry are separate records, joined by “and”; a condition that tells them apart may be missing. Equal values may be shown once. Inconclusive results and toxic doses are left out.

In the case of `OCc1cc(Cl)ccc1O`, the T/C under setting [1] is 103 % of control, the T/C under setting [2] is 96 % of control and the T/C under setting [3] was 86 % of control.

For the compound `O=Nc1c(O)ccc2ccccc12`, the T/C was 90 % of control under setting [4] and 93 % of control under setting [1].

With `O=C(C(=O)c1ccc(Br)cc1)c1ccc(Br)cc1`, the T/C is 108 % of control (dose: 12.5 mg/kg/injection, schedule: Q01DX009 (ip), vehicle: Klucel (hydroxypropylcellulose) (HPC)); 107 % of control under setting [4]; 91 % of control under setting [1].

In the case of `Cc1ccc(C(=O)C=C(C(F)(F)F)C(F)(F)F)cc1`, the T/C (dose: 6.25 mg/kg/injection, schedule: Q04DX003 (ip), vehicle: saline with Tween-80) was 111 % of control; the T/C under setting [5] was 100 % of control; the T/C under setting [6] is 105 % of control.

Take `CN(C)CC(C(=O)Cc1ccccc1)c1ccccc1` (centres undefined): the T/C was 93 % of control under setting [7]; 88 % of control (dose: 50.0 mg/kg/injection, schedule: Q01DX009 (ip), vehicle: saline); 97 % of control under setting [8].

For the compound `CNc1nc(N)nc(Nc2ccc(I)cc2)c1N=O`, the T/C was 99 % of control under setting [4]; 90 % of control under setting [1]; 94 % of control under setting [9]; 96 % of control under setting [2]; 94 % of control under setting [10]; 94 % of control (dose: 200.0 mg/kg/injection, schedule: Q01DX009 (ip), vehicle: saline with Tween-80). Also, the T/C under setting [11] is 123 % of control.

As for `CN(C)N=Nc1ccc(S(=O)(=O)Nc2ncccn2)cc1`, the T/C under setting [12] is 108 % of control; the T/C (dose: 14.7 mg/kg/injection, schedule: Q01DX009 (ip), vehicle: saline with Tween-80) was 110 % of control; the T/C (dose: 22.0 mg/kg/injection, schedule: Q01DX009 (ip), vehicle: saline with Tween-80) is 116 % of control; the T/C under setting [13] is 123 % of control; the T/C (dose: 33.0 mg/kg/injection, schedule: Q01DX009 (ip), vehicle: saline with Tween-80) is 106 % of control and 123 % of control; the T/C (dose: 75.0 mg/kg/injection, schedule: Q01DX009 (ip), vehicle: saline with Tween-80) was 115 % of control.

`Cc1cnc2c(=O)[nH]c(=O)[nH]c2n1`: the T/C is, setting by setting: under setting [2], 90 % of control; under setting [11], 93 % of control.

Consider `CCOC(=O)CC(=O)c1ccccc1F`, for which the T/C under setting [2] is 99 % of control, the T/C under setting [3] is 102 % of control and the T/C under setting [11] was 106 % of control.

As for `CCOC(=O)C(Br)C(=O)OCC`, the T/C (dose: 0.58 mg/kg/injection, schedule: Q04DX003 (ip), vehicle: saline) is 97 % of control; the T/C (dose: 1.17 mg/kg/injection, schedule: Q04DX003 (ip), vehicle: saline) was 100 % of control; the T/C (dose: 2.34 mg/kg/injection, schedule: Q04DX003 (ip), vehicle: saline) was 97 % of control; the T/C (dose: 4.68 mg/kg/injection, schedule: Q04DX003 (ip), vehicle: saline) is 93 % of control.

Regarding `O=NN(CCCl)C(=O)NC1[C@H](O)CCC[C@@H]1O` (some centres undefined), the T/C runs as follows: (dose: 0.63 mg/kg/injection, schedule: Q01DX009 (ip), vehicle: saline) 159 % of control; (dose: 1.25 mg/kg/injection, schedule: Q01DX009 (ip), vehicle: saline) 208 % of control; (dose: 2.5 mg/kg/injection, schedule: Q01DX009 (ip), vehicle: saline) 295 % of control; (dose: 5.0 mg/kg/injection, schedule: Q01DX009 (ip), vehicle: saline) 295 % of control.

As for `CC(=O)O.[Pb]`, the T/C reads like this: (dose: 1.56 mg/kg/injection, schedule: Q01DX009 (ip), vehicle: saline with Tween-80) 95 % of control; (dose: 3.13 mg/kg/injection, schedule: Q01DX009 (ip), vehicle: saline with Tween-80) 95 % of control; under setting [14], 95 % of control; under setting [12], 88 % of control.

Turning to `NC(=O)Cn1cnc2c(=S)nc[nH]c21`, the T/C was 95 % of control under setting [5] and 100 % of control under setting [6].

For the compound `C#CCOCC1CN(C)C(=O)O1` (centres undefined), the T/C runs as follows: under setting [7], 109 % of control; under setting [8], 102 % of control; (dose: 200.0 mg/kg/injection, schedule: Q01DX009 (ip), vehicle: saline) 109 % of control; (dose: 400.0 mg/kg/injection, schedule: Q01DX009 (ip), vehicle: saline) 107 % of control.

Turning to `CC(C)(C)CC(C)(C)CC(C)(C)NCCCN`, the T/C under setting [14] was 105 % of control, the T/C under setting [12] is 91 % of control and the T/C under setting [13] was 86 % of control.

In the case of `COCCNCCOC`, the T/C runs as follows: (dose: 160.0 mg/kg/injection, schedule: Q01DX009 (ip), vehicle: saline) 118 % of control; (dose: 370.0 mg/kg/injection, schedule: Q01DX009 (ip), vehicle: saline) 121 % of control.

With `CCN(c1ccccc1C)S(=O)(=O)c1ccccc1`, the T/C by setting is: under setting [13], 100 % of control; under setting [9], 101 % of control; under setting [2], 96 % of control; under setting [10], 96 % of control.

Take `Cc1[nH]c(=O)[nH]c(=O)c1N(CCF)CCCl`: the T/C is 110 % of control (dose: 1.8 mg/kg/injection, schedule: Q01DX009 (ip), vehicle: saline with Tween-80); 110 % of control (dose: 3.0 mg/kg/injection, schedule: Q01DX009 (ip), vehicle: saline with Tween-80); 100 % of control (dose: 5.0 mg/kg/injection, schedule: Q01DX009 (ip), vehicle: Klucel (hydroxypropylcellulose) (HPC)); 123 % of control (dose: 8.0 mg/kg/injection, schedule: Q01DX009 (ip), vehicle: acid diluted with saline); 165 % of control (dose: 14.0 mg/kg/injection, schedule: Q01DX009 (ip), vehicle: saline with Tween-80); 121 % of control (dose: 16.0 mg/kg/injection, schedule: Q01DX009 (ip), vehicle: saline with Tween-80). The T/C runs as follows: (dose: 16.0 mg/kg/injection, schedule: Q04DX003 (ip), vehicle: acid diluted with saline) 107 % of control; (dose: 16.0 mg/kg/injection, schedule: Q04DX003 (ip), vehicle: saline with Tween-80) 123 % of control; (dose: 32.0 mg/kg/injection, schedule: Q04DX003 (ip), vehicle: acid diluted with saline) 118 % of control; (dose: 32.0 mg/kg/injection, schedule: Q04DX003 (ip), vehicle: saline with Tween-80) 180 % of control.

As for `Cc1cccc(NC(=O)Nc2cccc(Cl)c2)c1C`, the T/C runs as follows: (dose: 100.0 mg/kg/injection, schedule: Q04DX003 (ip), vehicle: Klucel (hydroxypropylcellulose) (HPC)) 107 % of control; (dose: 200.0 mg/kg/injection, schedule: Q04DX003 (ip), vehicle: Klucel (hydroxypropylcellulose) (HPC)) 100 % of control; (dose: 400.0 mg/kg/injection, schedule: Q04DX003 (ip), vehicle: Klucel (hydroxypropylcellulose) (HPC)) 103 % of control.

Take `CCCCCCCCCC(=O)N(C)OC`: the T/C by setting is: under setting [5], 100 % of control; under setting [6], 104 % of control; (dose: 50.0 mg/kg/injection, schedule: Q04DX003 (ip), vehicle: saline with Tween-80) 100 % of control.

`O=C1C(N2CCOCC2)=C(N2CC2)C(=O)C(N2CCOCC2)=C1N1CC1`: the T/C is 118 % of control (dose: 0.75 mg/kg/injection, schedule: Q01DX009 (ip), vehicle: saline); 124 % of control (dose: 1.5 mg/kg/injection, schedule: Q01DX009 (ip), vehicle: saline); 120 % of control (dose: 3.0 mg/kg/injection, schedule: Q01DX009 (ip), vehicle: saline); 106 % of control (dose: 6.0 mg/kg/injection, schedule: Q01DX009 (ip), vehicle: saline).

As for `Nc1nc(N)c2nc(CNc3ccc(C(=O)NC(CCC(=O)O)C(=O)O)cc3)cnc2n1` (centres undefined), the T/C (dose: 0.03 mg/kg/injection, schedule: Q01DX009 (ip), vehicle: saline with Tween-80) was 91 % of control; the T/C (dose: 0.13 mg/kg/injection, schedule: Q01DX009 (ip), vehicle: saline with Tween-80) is 102 % of control; the T/C (dose: 0.25 mg/kg/injection, schedule: Q01DX009 (ip), vehicle: saline with Tween-80) is 91 % of control and 95 % of control.

Regarding `O=C(O)/C=C/C(=O)Nc1cccc(Oc2ccc([N+](=O)[O-])cc2[N+](=O)[O-])c1`, the T/C reads like this: (dose: 150.0 mg/kg/injection, schedule: Q01DX009 (ip), vehicle: Klucel (hydroxypropylcellulose) (HPC)) 90 % of control; (dose: 300.0 mg/kg/injection, schedule: Q01DX009 (ip), vehicle: Klucel (hydroxypropylcellulose) (HPC)) 107 % of control.
